In patent US6653331B2, “Targeted drug delivery using sulfonamide derivatives” (Pharmacia & Upjohn Company, priority 1996, dated 2003):
Each block holds one molecule with its values, some of them ahead of it.

Experiments:
[1] = tested on: CACO-2 cells; assay: Metabolism in CACO-2 cell culture; type: in vitro ADME, human
Procedure: (§1) The following observations were made during in-vivo (animal models) and in-vitro (cell cultures) studies of the metabolic disposition of the title compound.
(§2) The protected title compound of J-1 is cleaved upon in-vitro incubation with GST/GSH. Enzymatic cleavage of J-1 yields sulfite (SO3^2−), azide (N3^−), and the glutathione-(p-nitrobenzene) conjugate.

[2] = molecular target: T1, GSTA3-3 (Rattus norvegicus, UniProt P04904); assay: Sulfonamidase activity of reconstituted isozyme GSTA3-3; type: biochemical; details: A3 homodimeric isoform of rat liver cytosol
T1 construct: The commercial preparation was a mixture of GST isozymes purified from rat liver; purchased; host or cells: rat liver (tissue-derived)
T1 sequence (P04904 2-221 limits assumed): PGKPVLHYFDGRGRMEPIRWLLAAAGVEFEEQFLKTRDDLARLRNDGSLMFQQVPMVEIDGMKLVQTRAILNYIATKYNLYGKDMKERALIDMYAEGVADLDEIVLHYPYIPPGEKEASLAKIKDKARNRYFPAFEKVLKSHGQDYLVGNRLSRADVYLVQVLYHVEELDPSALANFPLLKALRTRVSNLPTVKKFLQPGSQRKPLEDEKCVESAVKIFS
Source text: (§3) As GST exists in a myriad of isoforms, which are active as homodimers and heterodimers, the specific isozyme(s) which was responsible for sulfonamide bond cleavage in the title compound, was investigated. The commercial isozyme mixture was subjected to RP-HPLC on a C18 column (0.45×25 cm). The separation profile of the various isozymes was very similar to that of published work carried out in conditions almost identical to these conditions. […] The HPLC samples were subjected to lyophilization and refolded in an Na-phosphate buffer at pH 6.8. Alternatively, refolding was carried out by subjecting the HPLC samples to a 16 hours dialysis against Na-phosphate, pH 6.8 followed by a 6 hours dialysis against Na-phosphate, pH 7.4; the refolding process was carried out at 4° C. The title compound's sulfonamidase activity of the reconstituted isozymes was proven for the A3 homodimeric isoform (GSTA3-3), and for the M1 isoform (GSTM1-1) of rat liver cytosol. The identity of the A3 isozyme was confirmed by N-terminus amino acid sequence.

[3] = tested on: GST; assay: Incubation with GST/GSH, cleavage of the sulfonamide bond; type: biochemical
Procedure: The protected title compound of formula J-1 is deprotected by GST/GSH under mild conditions. Incubations of 100 μM of this compound and 500 μM GSH with GST (0.5 mg protein /mL) are carried out in 100 mM phosphate buffer, pH 7.4 for 1 hour, at 37° C. in a volume of 0.5 mL. The cleavage of sulfonamide bond is essentially 100% complete after one hour incubation to yield the compound of formula J-2.
as §2

[4] = molecular target: T2, GSTM1-1 (Rattus norvegicus, UniProt P04905); assay: Sulfonamidase activity of reconstituted isozyme GSTM1-1; type: biochemical; details: M1 isoform of rat liver cytosol
T2 construct: The commercial preparation was a mixture of GST isozymes purified from rat liver; purchased; host or cells: rat liver (tissue-derived)
T2 sequence (P04905 2-218 limits assumed): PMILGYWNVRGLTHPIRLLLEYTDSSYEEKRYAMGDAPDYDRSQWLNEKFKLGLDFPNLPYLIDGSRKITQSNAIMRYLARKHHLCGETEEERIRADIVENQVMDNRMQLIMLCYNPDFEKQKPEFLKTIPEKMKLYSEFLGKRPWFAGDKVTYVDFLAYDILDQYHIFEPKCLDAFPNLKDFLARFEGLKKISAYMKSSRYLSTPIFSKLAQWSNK
Source text: as §3

[5] = tested on: Glutathione-S-transferase (GST); assay: Sulfonamidase activity of commercial GST (isozyme mixture from rat liver); type: biochemical; details: title compound and GSH as substrates
Procedure: Indeed, most of the activity of 10 ml of rat liver cytosol extract was retained by a GSH-Sepharose column (3.9 ml bed volume), packed and equilibrated in 20 mM Hepes buffer, pH 7.5, while the majority of the cytosolic protein was found in the effluent. After the column was washed extensively with up to 1 mM GSH, it was eluted with 5, 20, and 50 mM GSH. The various fractions were dialyzed against 20 mM Hepes buffer, pH 7.5 and tested for enzymatic activity using the title compound and GSH as substrates; the fractions were then subjected to SDS-PAGE. […] The GSH dependence for activity, the ability to purify the enzyme in a single step by a GSH affinity column, and the Mr˜25,000 pointed to Glutathione-S-transferase (GST). […] The commercial preparation was a mixture of GST isozymes purified from rat liver.

[6] = tested on: human hepatocytes; assay: In-vitro incubation with human hepatocytes; type: in vitro ADME
Source text: as §1

[7] = tested on: rat hepatocytes; assay: In-vitro incubation with rat hepatocytes; type: in vitro ADME
Source text: as §1

[8] = tested on: intracellular GSH; details: cited from earlier work
[9] = In-vivo metabolic disposition in the rat
Source text: as §1

[10] = In-vivo metabolic disposition in the dog
Source text: as §1

[11] = tested on: cells; assay: Cytotoxicity in the presence of GST inhibitors; type: cell-based
Source text: Azide, N3^−, is an agent which is known to be cytotoxic to respiring cells. Azide inhibits ATP production via its interference with the cytochrome electron transport chain involved in the terminal stage of oxidative phosphorylation. The agent is markedly cytotoxic to cells relying on aerobic glycolysis/oxidative phosphorylation as a source of energy. […] Metabolism of J-1 within cells by GST releases the potent azide cytotoxin. Thus, covalent coupling of azide with the p-nitrobenzene sulfonyl moiety masks the cytotoxity of azide until cleavage by GST releases the active cytotoxin.

Molecule: CCC[C@@]1(CCc2ccccc2)CC(O)=C([C@H](CC)c2cccc(NS(=O)(=O)c3ccc(C#N)cn3)c2)C(=O)O1 (relative stereo) [J-1, [R-(R*,R*)]-5-Cyano-N-[3-[1-[5,6-dihydro-4-hydroxy-2-oxo-6-(2-phenylethyl)-6-propyl-2H-pyran-3-yl]propyl]phenyl]-2-pyridine-sulfonamide]
sulfonamide cleavage by CACO-2 cells ([1]; CACO-2, human colon adenocarcinoma cell line): significant sulfonamide cleavage | rate of cleavage in CACO-2 cells compared with normal cells ([1]; CACO-2 cells versus normal cells): markedly faster | sulfonamidase activity of reconstituted isozyme [2]: proven | cleavage of sulfonamide bond ([3]; 100 μM compound, 500 μM GSH, GST 0.5 mg protein/mL, 100 mM phosphate buffer pH 7.4, 1 hour, 37° C.): ~100% | sulfonamidase activity of reconstituted isozyme [4]: proven | sulfonamidase activity of commercial GST [5]: high sulfonamidase activity | sulfonamide cleavage with release of J-2 [6]: underwent sulfonamide cleavage | sulfonamide cleavage with release of J-2 [7]: underwent sulfonamide cleavage

Molecule: C=C(CC)C(=O)c1ccc(OCC(=O)O)c(Cl)c1Cl [Ethacrynic Acid]
effect on intracellular GSH [8]: deplete intracellular GSH

circulating metabolite of the title compound in the blood [9]: major circulating metabolite | circulating metabolite of the title compound in the blood [10]: major circulating metabolite
Molecule: CCC[C@@]1(CCc2ccccc2)CC(O)=C([C@H](CC)c2cccc(N)c2)C(=O)O1 [J-2]

Molecule: [R-(R*,R*)]-5-Cyano-N-[3-[1-[5,6-dihydro-4-hydroxy-2-oxo-6-(2-phenylethyl)-6-propyl-2H-pyran-3-yl]propyl]phenyl]-2-pyridine-sulfonamide [J-1]
cytotoxicity [11]: relatively non-cytotoxic | metabolism to form the azide in the presence of known GST inhibitors ([1]; known GST inhibitors present): blocked | metabolism in CACO-2 cell culture ([1]; products compared with enzymatic GST/GSH cleavage): yield the same products | cleavage upon in-vitro incubation with GST/GSH ([3]; yields sulfite, azide and the glutathione-(p-nitrobenzene) conjugate): cleaved
